Reference: patent publication US20260092061A1, “COMPOUNDS FOR TARGETED PROTEIN DEGRADATION” (Amphista Therapeutics Limited, priority 2022, published 2026)

Molecular target: T1, BRD9 (Homo sapiens, UniProt Q9H8M2)
T1 sequence (Q9H8M2 1-597): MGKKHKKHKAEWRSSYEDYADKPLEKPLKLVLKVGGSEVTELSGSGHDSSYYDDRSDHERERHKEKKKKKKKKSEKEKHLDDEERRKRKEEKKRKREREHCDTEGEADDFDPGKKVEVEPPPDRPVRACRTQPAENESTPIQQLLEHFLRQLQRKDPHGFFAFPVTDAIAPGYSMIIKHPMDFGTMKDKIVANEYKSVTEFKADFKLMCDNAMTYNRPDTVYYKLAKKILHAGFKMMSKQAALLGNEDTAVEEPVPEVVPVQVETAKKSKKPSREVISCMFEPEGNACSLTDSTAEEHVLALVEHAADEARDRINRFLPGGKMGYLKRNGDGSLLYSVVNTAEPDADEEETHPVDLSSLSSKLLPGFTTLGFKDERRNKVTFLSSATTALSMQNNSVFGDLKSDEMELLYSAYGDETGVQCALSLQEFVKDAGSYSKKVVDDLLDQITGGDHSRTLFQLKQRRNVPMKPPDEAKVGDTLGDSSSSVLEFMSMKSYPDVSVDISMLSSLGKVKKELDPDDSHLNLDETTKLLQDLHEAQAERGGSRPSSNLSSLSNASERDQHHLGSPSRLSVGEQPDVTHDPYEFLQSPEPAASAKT
Assay: Degradation of BRD9 (IF), immunofluorescence in MV4-11 cells, 24 hours (Assay Protocol 2)
Assay type: cell-based
Design: A suspension of MV4-11 cells (ATCC CRL-9591) was prepared; host or cells: MV4-11
Details: BRD9 degradation; for DC50: Assay protocol 2, read-out: DC50; for Dmax: MV4-11, Assay protocol 2, read-out: Dmax
How it was run: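 % BRD9 remaining, scaled between DMSO (high) and 100 nM CFT-8634 (low) control wells, derives from mean Alexa 647 contrast in central nuclei by high-content imaging. MV4-11 cells had 24 h compound exposure at 37° C. before PFA fixation, Triton permeabilisation and anti-BRD9 E4Q3F immunostaining.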

Row | DC50 | Dmax | SMILES
1 | 25 to 1000 nM | > 75% | COc1cc(-c2cn(C)c(=O)c(C)c2C)cc(OC)c1CN1CCN(Cc2cccc3c2CCN(C(=O)/C(C#N)=C/C(C)(C)C)C3C(C)C)[C@@H](C)C1 (mixture of isomers) [Compound C14, (E/Z)-2-(5-(((S)-4-(2,6-dimethoxy-4-(1,4,5-trimethyl-6-oxo-1,6-dihydropyridin-3-yl)benzyl)-2-methylpiperazin-1-yl)methyl)-1-isopropyl-1,2,3,4-tetrahydroisoquinoline-2-carbonyl)-4,4-dimethylpent-2-enenitrile]
2 | < 1.25 nM | > 75% | CCC1c2cccc(CN3CCN(Cc4c(OC)cc(-c5cn(C)c(=O)c(C)c5C)cc4OC)CC34CC4)c2CCN1C(=O)/C(C#N)=C/C(C)(C)C (mixture of isomers) [Compound C15, (E/Z)-2-(5-((7-(2,6-dimethoxy-4-(1,4,5-trimethyl-6-oxo-1,6-dihydropyridin-3-yl)benzyl)-4,7-diazaspiro[2.5]octan-4-yl)methyl)-1-ethyl-1,2,3,4-tetrahydroisoquinoline-2-carbonyl)-4,4-dimethylpent-2-enenitrile]
3 | < 1.25 nM | > 75% | COc1cc(-c2cn(C)c(=O)c(C)c2C)cc(OC)c1CN1CCN(Cc2cccc3c2CCN(C(=O)/C(C#N)=C/C(C)(C)C)C3C2CC2)C2(CC2)C1 (mixture of isomers) [Compound C16, (E/Z)-2-(1-cyclopropyl-5-((7-(2,6-dimethoxy-4-(1,4,5-trimethyl-6-oxo-1,6-dihydropyridin-3-yl)benzyl)-4,7-diazaspiro[2.5]octan-4-yl)methyl)-1,2,3,4-tetrahydroisoquinoline-2-carbonyl)-4,4-dimethylpent-2-enenitrile]
4 | 1.25 to 10 nM | > 75% | CCCC1c2cccc(CN3CCN(Cc4c(OC)cc(-c5cn(C)c(=O)c(C)c5C)cc4OC)CC34CC4)c2CCN1C(=O)/C(C#N)=C/C(C)(C)C (mixture of isomers) [Compound C17, (E/Z)-2-(5-((7-(2,6-dimethoxy-4-(1,4,5-trimethyl-6-oxo-1,6-dihydropyridin-3-yl)benzyl)-4,7-diazaspiro[2.5]octan-4-yl)methyl)-1-propyl-1,2,3,4-tetrahydroisoquinoline-2-carbonyl)-4,4-dimethylpent-2-enenitrile]
5 | 1.25 to 10 nM | > 75% | COCC1(OC)c2cccc(CN3CCN(Cc4c(OC)cc(-c5cn(C)c(=O)c(C)c5C)cc4OC)CC34CC4)c2CCN1C(=O)/C(C#N)=C/C(C)(C)C (mixture of isomers) [Compound C18, (E/Z)-2-(5-((7-(2,6-dimethoxy-4-(1,4,5-trimethyl-6-oxo-1,6-dihydropyridin-3-yl)benzyl)-4,7-diazaspiro[2.5]octan-4-yl)methyl)-1-methoxy-1-(methoxymethyl)-1,2,3,4-tetrahydroisoquinoline-2-carbonyl)-4,4-dimethylpent-2-enenitrile]
6 | 1.25 to 10 nM | 70 to 75% | COc1cc(-c2cn(C)c(=O)c(C)c2C)cc(OC)c1CN1CCN(Cc2cccc3c2CCN(C(=O)/C(C#N)=C/c2cccc(Br)n2)C3C(C)C)CC1 (mixture of isomers) [Compound C21, (E/Z)-3-(6-bromopyridin-2-yl)-2-(5-((4-(2,6-dimethoxy-4-(1,4,5-trimethyl-6-oxo-1,6-dihydropyridin-3-yl)benzyl)piperazin-1-yl)methyl)-1-isopropyl-1,2,3,4-tetrahydroisoquinoline-2-carbonyl)acrylonitrile]
7 | 1.25 to 10 nM | > 75% | COc1cc(-c2cn(C)c(=O)c(C)c2C)cc(OC)c1CN1CCN(Cc2cccc3c2CCN(C(=O)/C(C#N)=C/C(C)C)C3C(C)C)CC1 (mixture of isomers) [Compound C22, (E/Z)-2-(5-((4-(2,6-dimethoxy-4-(1,4,5-trimethyl-6-oxo-1,6-dihydropyridin-3-yl)benzyl)piperazin-1-yl)methyl)-1-isopropyl-1,2,3,4-tetrahydroisoquinoline-2-carbonyl)-4-methylpent-2-enenitrile]
8 | < 1.25 nM | > 75% | COc1cc(-c2cn(C)c(=O)c(C)c2C)cc(OC)c1CN1CCN(Cc2cccc3c2CCN(C(=O)/C(C#N)=C/C2(C)CCOCC2)C3C(C)C)C2(CC2)C1 (mixture of isomers) [Compound C23, (E/Z)-2-(5-((7-(2,6-dimethoxy-4-(1,4,5-trimethyl-6-oxo-1,6-dihydropyridin-3-yl)benzyl)-4,7-diazaspiro[2.5]octan-4-yl)methyl)-1-isopropyl-1,2,3,4-tetrahydroisoquinoline-2-carbonyl)-3-(4-methyltetrahydro-2H-pyran-4-yl)acrylonitrile]
9 | < 1.25 nM | > 75% | COc1cc(-c2cn(C)c(=O)c(C)c2C)cc(OC)c1CN1CCN(Cc2cccc3c2CCN(C(=O)/C(C#N)=C/C(C)(C)CF)C3C(C)C)C2(CC2)C1 (mixture of isomers) [Compound C24, (E/Z)-2-(5-((7-(2,6-dimethoxy-4-(1,4,5-trimethyl-6-oxo-1,6-dihydropyridin-3-yl)benzyl)-4,7-diazaspiro[2.5]octan-4-yl)methyl)-1-isopropyl-1,2,3,4-tetrahydroisoquinoline-2-carbonyl)-5-fluoro-4,4-dimethylpent-2-enenitrile]
10 | 1.25 to 10 nM | > 75% | COc1cc(-c2cn(C)c(=O)c(C)c2C)cc(OC)c1CN1CCN(Cc2cccc3c2CCN(C(=O)/C(C#N)=C/C(C)(C)CF)C3C(C)C)CC12CC2 (mixture of isomers) [Compound C25, (E/Z)-2-(5-((4-(2,6-dimethoxy-4-(1,4,5-trimethyl-6-oxo-1,6-dihydropyridin-3-yl)benzyl)-4,7-diazaspiro[2.5]octan-7-yl)methyl)-1-isopropyl-1,2,3,4-tetrahydroisoquinoline-2-carbonyl)-5-fluoro-4,4-dimethylpent-2-enenitrile]
11 | 1.25 to 10 nM | 70 to 75% | COc1cc(-c2cn(C)c(=O)c(C)c2C)cc(OC)c1CN1CCN(Cc2cccc3c2CCN(C(=O)/C(C#N)=C/c2cccc(Br)n2)C3C)C2(CC2)C1 (mixture of isomers) [Compound C29]
12 | 25 to 1000 nM | 40 to 70% | COc1cc(-c2cn(C)c(=O)c(C)c2C)cc(OC)c1CN1CCN(Cc2cccc3c2CCN(C(=O)/C(C#N)=C/C(C)(C)F)[C@H]3C)C2(CC2)C1 (mixture of isomers) [Compound C30]
13 | 25 to 1000 nM | 70 to 75% | COc1cc(-c2cn(C)c(=O)c(C)c2C)ccc1OC1CCN(Cc2cccc3c2CCN(C(=O)/C(C#N)=C/C(C)(C)C)C3C(C)C)CC1 (mixture of isomers) [Compound C32, (E/Z)-2-(1-isopropyl-5-((4-(2-methoxy-4-(1,4,5-trimethyl-6-oxo-1,6-dihydropyridin-3-yl)phenoxy)piperidin-1-yl)methyl)-1,2,3,4-tetrahydroisoquinoline-2-carbonyl)-4,4-dimethylpent-2-enenitrile]
14 | 25 to 1000 nM | > 75% | COc1cc(-c2cn(C)c(=O)c(C)c2C)cc(OC)c1CN1CCN(C(=O)c2cccc3c2CCN(C(=O)/C(C#N)=C/C(C)(C)C)C3C)C2(CC2)C1 (mixture of isomers) [Compound C43, (E/Z)-2-(5-(7-(2,6-dimethoxy-4-(1,4,5-trimethyl-6-oxo-1,6-dihydropyridin-3-yl)benzyl)-4,7-diazaspiro[2.5]octane-4-carbonyl)-1-methyl-1,2,3,4-tetrahydroisoquinoline-2-carbonyl)-4,4-dimethylpent-2-enenitrile]
15 | 10 to 25 nM | 40 to 70% | COc1cc(-c2cn(C)c(=O)c(C)c2C)cc(OC)c1CN1CCC2(CC1)CN(c1cccc3c1CCN(C(=O)/C(C#N)=C/C(C)(C)C)[C@@H]3C)C2 (mixture of isomers) [Compound C45, (E/Z)-2-(5-(7-(2,6-dimethoxy-4-(1,4,5-trimethyl-6-oxo-1,6-dihydropyridin-3-yl)benzyl)-2,7-diazaspiro[3.5]nonan-2-yl)-1-methyl-1,2,3,4-tetrahydroisoquinoline-2-carbonyl)-4,4-dimethylpent-2-enenitrile]
16 | 1.25 to 10 nM | > 75% | COc1cc(-c2cn(C)c(=O)c(C)c2C)cc(OC)c1CN1CCC2(CC1)CCN(c1cccc3c1CCN(C(=O)/C(C#N)=C/C(C)(C)CF)[C@@H]3C)C2 (mixture of isomers) [Compound C48, (E/Z)-2-(5-(8-(2,6-dimethoxy-4-(1,4,5-trimethyl-4-oxo-1,6-dihydropyridin-3-yl)benzyl)-2,8-diazaspiro[4.5]decan-2-yl)-1-methyl-1,2,3,4-tetrahydroisoquinoline-2-carbonyl)-5-fluoro-4,4-dimethylpent-2-enenitrile]
17 | 25 to 1000 nM | 40 to 70% | COc1cc(-c2cn(C)c(=O)c(C)c2C)cc(OC)c1CN1CCC(N(C)c2cccc3c2CCN(C(=O)/C(C#N)=C/C(C)(C)C)C3C)C(F)(F)C1 (mixture of isomers) [Compound C57]
